Bounds are passed on as bounds.

One data set deals with Influenza A virus. Kind of data set: Antiviral activity against Influenza A virus (A/WSN/1933(H1N1)) infected in MDCK cells assessed as reduction in virus-induced cytopathic effect measured everyday. Type of data set: functional, organism-based.
The nature of data set [1]: Inhibition of Clostridium neuraminidase preincubated for 2 mins followed by neuraminidase fluorescent addition and measured after 30 mins by fluorescence assay.
The nature of data set [2]: Cytotoxicity against MDCK cells assessed as reduction in cell viability after 72 hrs by CellTiter-Glo assay. Type of data set: cell-based, Canis lupus familiaris. The note with it: dog. Background: Cellular ATP, detected with luciferase, serves as a proxy for viable cell number.
The nature of data set [3]: Selectivity index, ratio of CC50 for MDCK cells to IC50 for Influenza A virus (A/WSN/1933(H1N1)). In kind it is toxicity. The note with it: dog, read-out: Ratio CC50/IC50.

On to `CC(=O)N[C@H]1[C@H]([C@H](O)[C@H](O)CO)OC(C(=O)O)=C[C@@H]1NC(=N)NC(=O)CSc1ccc2ccccc2c1`, for which, in the data set on Influenza A virus (read-out: pIC50 (converted)), the IC50 is 20.1 nM. As to `COc1cc(CCC(=O)NC(=N)N[C@H]2C=C(C(=O)O)O[C@@H]([C@H](O)[C@H](O)CO)[C@@H]2NC(C)=O)cc(OC)c1OC`, the IC50 with Influenza A virus (read-out: pIC50 (converted)) is 239 nM. As for `CC(=O)N[C@H]1[C@H]([C@H](O)[C@H](O)CO)OC(C(=O)O)=C[C@@H]1NC(=N)NC(=O)Cc1ccc2ccccc2c1`, the IC50 in the data set on Influenza A virus (read-out: pIC50 (converted)) was 55 nM.

As to `CC(=O)N[C@H]1[C@H]([C@H](O)[C@H](O)CO)OC(C(=O)O)=C[C@@H]1NC(=N)NC(=O)c1ccc([N+](=O)[O-])cc1`, the IC50 in the data set on Influenza A virus (read-out: pIC50 (converted)) was 152 nM. In the case of `COc1ccccc1CCC(=O)NC(=N)N[C@H]1C=C(C(=O)O)O[C@@H]([C@H](O)[C@H](O)CO)[C@@H]1NC(C)=O`, the IC50 with Influenza A virus (read-out: pIC50 (converted)) is 196 nM. The same measure, in the same setting: the same measure for `CC(=O)N[C@H]1[C@H]([C@H](O)[C@H](O)CO)OC(C(=O)O)=C[C@@H]1NC(=N)NC(=O)CC12CC3CC(CC(C3)C1)C2`: 275 nM; for `CC(=O)N[C@H]1[C@H]([C@H](O)[C@H](O)CO)OC(C(=O)O)=C[C@@H]1NC(=N)NC(=O)CC(C)CCC=C(C)C` (stereo not given in full): 541 nM.

Regarding `CC(=O)N[C@H]1[C@H]([C@H](O)[C@H](O)CO)OC(C(=O)O)=C[C@@H]1NC(=N)NC(=O)CCc1ccccc1C(F)(F)F`, the IC50 in the data set on Influenza A virus (read-out: pIC50 (converted)) is 332 nM. For the compound `CC(=O)N[C@H]1[C@H]([C@H](O)[C@H](O)CO)OC(C(=O)O)=C[C@@H]1NC(=N)NC(=O)CCc1ccc2ccccc2c1`, the IC50 with Influenza A virus (read-out: pIC50 (converted)) is 74.8 nM.

`CC(=O)N[C@H]1[C@H]([C@H](O)[C@H](O)CO)OC(C(=O)O)=C[C@@H]1NC(=N)NC(=O)CCCCC1CCCCC1`: in the data set on Influenza A virus (read-out: pIC50 (converted)), the IC50 was 260 nM. With `CC(=O)N[C@H]1[C@H]([C@H](O)[C@H](O)CO)OC(C(=O)O)=C[C@@H]1NC(=N)NCCSc1ccccc1`, in the data set with Influenza A virus (read-out: pIC50 (converted)), the IC50 is 39400 nM. For `CC(=O)N[C@H]1[C@H]([C@H](O)[C@H](O)CO)OC(C(=O)O)=C[C@@H]1NC(=N)NC(=O)CCc1ccccc1`, the IC50 with Influenza A virus (read-out: pIC50 (converted)) is 203 nM.

On to `CC(=O)N[C@H]1[C@H]([C@H](O)[C@H](O)CO)OC(C(=O)O)=C[C@@H]1NC(=N)NC(=O)CCc1ccc(N)cc1`, for which the IC50 in the data set with Influenza A virus (read-out: pIC50 (converted)) is 176 nM. With `CCC(C)C(=O)NC(=N)N[C@H]1C=C(C(=O)O)O[C@@H]([C@H](O)[C@H](O)CO)[C@@H]1NC(C)=O` (stereo not given in full), the IC50 with Influenza A virus (read-out: pIC50 (converted)) is 774 nM. Turning to `CC(=O)N[C@H]1[C@H]([C@H](O)[C@H](O)CO)OC(C(=O)O)=C[C@@H]1NC(=N)NC(=O)CCCc1ccc(N)cc1`, in the data set with Influenza A virus (read-out: pIC50 (converted)), the IC50 is 421 nM. Turning to `CC(=O)N[C@H]1[C@H]([C@H](O)[C@H](O)CO)OC(C(=O)O)=C[C@@H]1NC(=N)NC(=O)CCCCCc1ccccc1`, the IC50 in the data set with Influenza A virus (read-out: pIC50 (converted)) was 233 nM. Same read-out and setting: the value for `CC(=O)N[C@H]1[C@H]([C@H](O)[C@H](O)CO)OC(C(=O)O)=C[C@@H]1NC(=N)NC(=O)CCC1CCOC1` (stereo not given in full) was 1200 nM; that for `COc1ccccc1CC(=O)NC(=N)N[C@H]1C=C(C(=O)O)O[C@@H]([C@H](O)[C@H](O)CO)[C@@H]1NC(C)=O` was 209 nM.

With `CC(=O)N[C@H]1[C@H]([C@H](O)[C@H](O)CO)OC(C(=O)O)=C[C@@H]1NC(=N)NC(=O)CSc1ccccc1`, in the data set on Influenza A virus (read-out: pIC50 (converted)), the IC50 is 189 nM.

In the case of `CC(=O)N[C@H]1[C@H]([C@H](O)[C@H](O)CO)OC(C(=O)O)=C[C@@H]1NC(=N)NC(=O)/C=C/c1cc(F)cc(F)c1`, the IC50 in the data set with Influenza A virus (read-out: pIC50 (converted)) is 166 nM. Regarding `CC(=O)N[C@H]1[C@H]([C@H](O)[C@H](O)CO)OC(C(=O)O)=C[C@@H]1NC(=N)NC(=O)CCc1ccccc1Br`, in the data set on Influenza A virus (read-out: pIC50 (converted)), the IC50 is 134 nM.

As to `CC(=O)N[C@H]1[C@H]([C@H](O)[C@H](O)CO)OC(C(=O)O)=C[C@@H]1NC(=N)NC(=O)Cc1ccccc1`, the IC50 with Influenza A virus (read-out: pIC50 (converted)) is 46 nM.

For the compound `CC(=O)N[C@H]1[C@H]([C@H](O)[C@H](O)CO)OC(C(=O)O)=C[C@@H]1NC(=N)NC(=O)Cc1cccc2ccccc12`, in the data set on Influenza A virus (read-out: pIC50 (converted)), the IC50 is 98.4 nM. For the compound `CC(=O)N[C@H]1[C@H]([C@H](O)[C@H](O)CO)OC(C(=O)O)=C[C@@H]1NC(=N)NC(=O)CCc1ccccc1C`, the IC50 in the data set with Influenza A virus (read-out: pIC50 (converted)) was 462 nM. As for `CC(=O)N[C@H]1[C@H]([C@H](O)[C@H](O)CO)OC(C(=O)O)=C[C@@H]1NC(=N)NC(=O)CCCOc1ccccc1`, the IC50 with Influenza A virus (read-out: pIC50 (converted)) is 397 nM.

Regarding `CC(=O)N[C@H]1[C@H]([C@H](O)[C@H](O)CO)OC(C(=O)O)=C[C@@H]1NC(=N)NC(=O)CCCCCCCCCCOc1ccccc1`, the IC50 in the data set on Influenza A virus (read-out: pIC50 (converted)) is 203 nM. Consider `CC(=O)N[C@H]1[C@H]([C@H](O)[C@H](O)CO)OC(C(=O)O)=C[C@@H]1NC(=N)NC(=O)Cc1ccc(F)cc1`, for which the IC50 in data set [1] came out at 35400 nM; with Influenza A virus (read-out: IC50) it was 670 nM. For the same compound, the half-maximal cytotoxic concentration (CC50) (as a rule, the concentration at which the toxic effect on the cells reaches its halfway point) at 72 h in data set [2] is more than 100000 nM. Moreover, the selectivity ratio in data set [3] is more than 149.

For the compound `CC(=O)N[C@H]1[C@H]([C@H](O)[C@H](O)CO)OC(C(=O)O)=C[C@@H]1NC(=N)NCCc1ccc2ccccc2c1`, the IC50 in the data set on Influenza A virus (read-out: pIC50 (converted)) was 34700 nM. As for `CC(=O)N[C@H]1[C@H]([C@H](O)[C@H](O)CO)OC(C(=O)O)=C[C@@H]1NC(=N)NC(=O)CCOc1ccccc1`, in the data set on Influenza A virus (read-out: pIC50 (converted)), the IC50 is 180 nM. As to `CC(=O)N[C@@H]1C(NC(=N)NC(=O)c2ccc(-c3ccc(O)cc3)cc2)C=C(C(=O)O)O[C@H]1[C@H](O)C(O)CO` (single isomer, unassigned), the values for the IC50 (in data set [1]; in the data set with Influenza A virus (read-out: IC50)) were 97500 nM and 6950 nM, respectively. Besides, in data set [2], the CC50 at 72 h is more than 100000 nM. Further, the selectivity ratio in data set [3] was more than 14. Turning to `CC(=O)N[C@H]1[C@H]([C@H](O)[C@H](O)CO)OC(C(=O)O)=C[C@@H]1NC(=N)N` [ZANAMIVIR], the values for the IC50 (in data set [1]; in the data set on Influenza A virus (read-out: IC50)) were 130000 nM and 873 nM, respectively. For the same compound, in data set [2], the CC50 at 72 h was more than 100000 nM. In data set [3], the selectivity ratio was more than 115.

Values taken from ChEMBL document CHEMBL4325880, “Design, synthesis and biological evaluation of novel zanamivir derivatives as potent neuraminidase inhibitors” (Bioorg Med Chem Lett, 2018).
